Source: patent US20230265151A1, “GIP/GLP1 CO-AGONIST COMPOUNDS” (priority 2020, published 2023)
Read-outs that look alike come from different tables or passages of the source.

Key:
Assay type in all cases: cell-based
hGCGR = biological target: T1, hGCGR (Homo sapiens, UniProt P47871); test: Functional cAMP formation (HTRF) in HEK-293 clonal cells expressing hGCGR, 0.1% bovine casein, without or with 1.0% human serum albumin
T1 construct: expressed in transfected cells
Procedure, shortened: (§1)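 Cells were stimulated with peptide for 30 min at 37° C, then lysed in buffer carrying cAMP-d2 and anti-cAMP Eu3+-cryptate for a competitive HTRF read after at least 60 min at room temperature. The 665/620 nm ratio was converted to nM cAMP against a standard curve.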

hGIPR = biological target: T2, hGIPR (Homo sapiens, UniProt P48546); test: Functional cAMP formation (HTRF) in HEK-293 clonal cells expressing hGIPR, 0.1% bovine casein, without or with 1.0% human serum albumin; conditions: for EC50: geometric mean
T2 construct: expressed in transfected cells
T2 sequence (P48546 22-466): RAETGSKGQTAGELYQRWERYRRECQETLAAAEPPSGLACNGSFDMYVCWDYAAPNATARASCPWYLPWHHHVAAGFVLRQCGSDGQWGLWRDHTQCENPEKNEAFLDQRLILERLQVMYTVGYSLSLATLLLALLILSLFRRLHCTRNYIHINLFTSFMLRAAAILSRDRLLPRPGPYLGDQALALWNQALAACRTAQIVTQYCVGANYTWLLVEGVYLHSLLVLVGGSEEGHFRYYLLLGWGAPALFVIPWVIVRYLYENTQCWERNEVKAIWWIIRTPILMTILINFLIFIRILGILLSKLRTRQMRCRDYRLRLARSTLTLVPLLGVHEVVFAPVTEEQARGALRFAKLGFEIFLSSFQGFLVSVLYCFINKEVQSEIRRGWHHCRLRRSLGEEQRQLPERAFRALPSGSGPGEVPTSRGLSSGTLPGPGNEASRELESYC
Procedure, shortened: as §1

hGLP-1R = hGLP-1R (Homo sapiens, UniProt P43220); test: Functional cAMP formation (HTRF) in HEK-293 clonal cells expressing hGLP-1R, 0.1% bovine casein, without or with 1.0% human serum albumin; set-up: expressed in transfected cells
Procedure, shortened: as §1

[1] = 0.1% bovine casein and 1.0% human serum albumin, 37° C., geometric mean, read-out: hGCGR EC50, nM (SEM, n)
[2] = cAMP, incubated at 37° C., 0.1% bovine casein (no human serum albumin), geometric mean, read-out: hGCGR EC50, nM (SEM, n)
[3] = HEK293, 0.1% bovine casein and 1.0% human serum albumin, 37° C., percent of maximal response to GIP(1-42)NH2, read-out: hGIPR Emax, % ± SEM
[4] = HEK293, percent of maximal response to GIP(1-42)NH2, 37° C., 0.1% bovine casein, arithmetic mean, read-out: hGIPR Emax, % ± SEM
[5] = cAMP, incubated at 37° C., 0.1% bovine casein (no human serum albumin), read-out: hGIPR EC50, nM (SEM, n)
[6] = HEK293, 0.1% bovine casein and 1.0% human serum albumin, 37° C., percent of maximal response to GLP-1(7-36)NH2, read-out: hGLP-1R Emax, % ± SEM

Chain of hGLP-1R (P43220 24-463): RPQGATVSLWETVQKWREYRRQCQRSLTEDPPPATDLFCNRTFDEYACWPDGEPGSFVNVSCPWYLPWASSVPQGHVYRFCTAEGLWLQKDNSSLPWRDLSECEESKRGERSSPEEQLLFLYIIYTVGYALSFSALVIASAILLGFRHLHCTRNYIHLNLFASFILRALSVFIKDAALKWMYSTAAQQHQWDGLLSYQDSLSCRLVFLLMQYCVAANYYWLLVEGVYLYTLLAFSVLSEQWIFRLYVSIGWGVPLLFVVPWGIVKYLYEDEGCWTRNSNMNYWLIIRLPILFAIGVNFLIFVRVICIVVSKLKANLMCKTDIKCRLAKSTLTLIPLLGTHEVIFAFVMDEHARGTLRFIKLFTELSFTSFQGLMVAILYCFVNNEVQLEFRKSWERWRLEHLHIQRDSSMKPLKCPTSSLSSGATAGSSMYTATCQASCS
T1 sequence (P47871 26-477): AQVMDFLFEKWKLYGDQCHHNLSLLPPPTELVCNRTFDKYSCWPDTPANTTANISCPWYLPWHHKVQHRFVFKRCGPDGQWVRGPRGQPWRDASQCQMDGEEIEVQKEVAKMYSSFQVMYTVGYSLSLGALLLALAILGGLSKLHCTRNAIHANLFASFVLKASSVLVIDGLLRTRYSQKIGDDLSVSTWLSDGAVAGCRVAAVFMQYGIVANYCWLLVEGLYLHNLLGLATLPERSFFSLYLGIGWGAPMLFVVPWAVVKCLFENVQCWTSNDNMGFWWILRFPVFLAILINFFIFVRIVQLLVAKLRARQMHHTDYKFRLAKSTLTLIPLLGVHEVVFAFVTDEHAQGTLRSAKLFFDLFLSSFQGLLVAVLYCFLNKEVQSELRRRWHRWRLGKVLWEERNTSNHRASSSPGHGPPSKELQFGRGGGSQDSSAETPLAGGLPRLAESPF

With `CCCCCCCCCCCC(=O)N[C@@H](CCC(=O)NCCOCCOCC(=O)NCCCC[C@H](NC(=O)[C@H](CO)NC(=O)[C@@H]1CCCN1C(=O)[C@@H]1CCCN1C(=O)[C@@H]1CCCN1C(=O)[C@H](C)NC(=O)CNC(=O)[C@H](CO)NC(=O)[C@H](CO)NC(=O)[C@@H]1CCCN1C(=O)CNC(=O)CNC(=O)[C@H](CCC(=O)O)NC(=O)[C@@H](NC(=O)[C@H](CC(C)C)NC(=O)[C@](C)(Cc1ccc(O)cc1)NC(=O)[C@@H](CCC(=O)O)NC(=O)[C@@H](NC(=O)[C@H](Cc1ccccc1)NC(=O)[C@H](CCC(=O)O)NC(=O)C(C)(C)NC(=O)[C@H](CCC(N)=O)NC(=O)[C@H](C)NC(=O)[C@H](CCCCNC(=O)COCCOCCNC(=O)CC[C@H](NC(=O)CCCCCCCCCCC)C(=O)O)NC(=O)[C@H](CCCN)NC(=O)[C@H](CC(=O)O)NC(=O)[C@H](CC(C)C)NC(=O)[C@](C)(CC(C)C)NC(=O)[C@@H](NC(=O)C(C)(C)NC(=O)[C@H](Cc1ccncc1)NC(=O)[C@H](CC(=O)O)NC(=O)[C@H](CO)NC(=O)[C@@H](NC(=O)[C@](C)(Cc1ccccc1F)NC(=O)[C@@H](NC(=O)CNC(=O)[C@H](CCC(=O)O)NC(=O)C(C)(C)NC(=O)[C@@H](N)Cc1ccc(O)cc1)[C@@H](C)O)[C@@H](C)O)[C@@H](C)CC)[C@@H](C)CC)[C@@H](C)CC)C(N)=O)C(=O)O` [Example 428] the EC50 (hGCGR; cAMP, 37° C., 0.1% bovine casein (no human serum albumin), geometric mean, read-out: hGCGR EC50, nM (SEM, n)) was greater than 9950 nM, the EC50 (hGCGR; cAMP, 37° C., 0.1% bovine casein and 1.0% human serum albumin, geometric mean (SEM, n), read-out: hGCGR EC50, nM (SEM, n)) was greater than 9950 nM and the Emax (hGIPR; HEK293, cAMP, 37° C., 0.1% bovine casein and 1.0% human serum albumin, percent of maximal response to GIP(1-42)NH2, read-out: hGIPR Emax, % ± SEM) was 93.6%. It also gave an Emax (hGIPR; HEK293, cAMP, 37° C., 0.1% bovine casein, percent of maximal response to GIP(1-42)NH2, arithmetic mean, read-out: hGIPR Emax, % ± SEM) of 95.5%, an EC50 (hGIPR; cAMP, 37° C., 0.1% bovine casein (no human serum albumin), read-out: hGIPR EC50, nM (SEM, n)) of 0.00797 nM and an Emax (hGLP-1R; HEK293, cAMP, 37° C., 0.1% bovine casein and 1.0% human serum albumin, percent of maximal response to GLP-1(7-36)NH2, read-out: hGLP-1R Emax, % ± SEM) of 105%. It also gave an EC50 (hGLP-1R; cAMP, 37° C., 0.1% bovine casein (no human serum albumin), geometric mean, read-out: hGLP-1R EC50, nM (SEM, n)) of 0.102 nM and an EC50 (hGLP-1R; cAMP, 37° C., 0.1% bovine casein and 1.0% human serum albumin, geometric mean (SEM, n), read-out: hGLP-1R EC50, nM (SEM, n)) of 10.2 nM.

Compound `CC[C@H](C)[C@H](NC(=O)[C@H](CC(C)C)NC(=O)[C@](C)(Cc1ccc(O)cc1)NC(=O)[C@@H](CCC(=O)O)NC(=O)[C@@H](NC(=O)[C@H](Cc1ccccc1)NC(=O)[C@H](CCC(=O)O)NC(=O)C(C)(C)NC(=O)[C@H](CCC(N)=O)NC(=O)[C@H](C)NC(=O)[C@H](CCCCNC(=O)COCCOCCNC(=O)COCCOCCNC(=O)CC[C@H](NC(=O)CCCCCCCCCCCCC(=O)O)C(=O)O)NC(=O)[C@H](CCCN)NC(=O)[C@H](CC(=O)O)NC(=O)[C@H](CC(C)C)NC(=O)[C@](C)(CC(C)C)NC(=O)[C@@H](NC(=O)[C@H](CN)NC(=O)[C@H](Cc1ccncc1)NC(=O)[C@H](CC(=O)O)NC(=O)[C@H](CO)NC(=O)[C@@H](NC(=O)[C@](C)(Cc1ccccc1F)NC(=O)[C@@H](NC(=O)CNC(=O)[C@H](CCC(=O)O)NC(=O)C(C)(C)NC(=O)[C@@H](N)Cc1ccc(O)cc1)[C@@H](C)O)[C@@H](C)O)[C@@H](C)CC)[C@@H](C)CC)C(=O)N[C@@H](CCC(=O)O)C(=O)NCC(=O)NCC(=O)N[C@@H](CCCCNC(=O)COCCOCCNC(=O)COCCOCCNC(=O)CC[C@H](NC(=O)CCCCCCCCCCCCC(=O)O)C(=O)O)C(=O)N[C@@H](CO)C(=O)N[C@@H](CO)C(=O)NCC(=O)N[C@@H](C)C(=O)N1CCC[C@H]1C(=O)N1CCC[C@H]1C(=O)N1CCC[C@H]1C(=O)N[C@@H](CO)C(N)=O` [Example 199] has an EC50 (hGCGR; [1]) greater than 9950 nM, an EC50 (hGCGR; [2]) greater than 9950 nM and an Emax (hGIPR; [3]) of 77.1%. It also gave an Emax (hGIPR; [4]) of 96.9 ± 1.48%, an EC50 (hGIPR; [5]) of 0.0587 nM and an Emax (hGLP-1R; [6]) of 100%. It also gave an Emax (hGLP-1R; HEK293, percent of maximal response to GLP-1(7-36)NH2, 37° C., 0.1% bovine casein, arithmetic mean, read-out: hGLP-1R Emax, % ± SEM) of 96.7 ± 6.69%.

With `CC[C@H](C)[C@H](NC(=O)[C@H](CCCN)NC(=O)[C@H](CC(=O)O)NC(=O)[C@H](CC(C)C)NC(=O)[C@](C)(CC(C)C)NC(=O)[C@@H](NC(=O)[C@H](CO)NC(=O)[C@H](Cc1ccc(OC)cc1)NC(=O)[C@H](CC(=O)O)NC(=O)[C@H](CO)NC(=O)[C@@H](NC(=O)[C@](C)(Cc1ccccc1F)NC(=O)[C@@H](NC(=O)CNC(=O)[C@H](CCC(=O)O)NC(=O)C(C)(C)NC(=O)[C@@H](N)Cc1ccc(O)cc1)[C@@H](C)O)[C@@H](C)O)[C@@H](C)CC)C(=O)N[C@@H](C)C(=O)N[C@@H](CCC(N)=O)C(=O)NC(C)(C)C(=O)N[C@@H](CCCCNC(=O)COCCOCCNC(=O)COCCOCCNC(=O)CC[C@H](NC(=O)CCCCCCCCCOc1ccc(C(=O)O)cc1)C(=O)O)C(=O)N[C@@H](Cc1ccccc1)C(=O)N[C@H](C(=O)N[C@H](CCC(=O)O)C(=O)N[C@@](C)(Cc1ccc(O)cc1)C(=O)N[C@@H](CC(C)C)C(=O)N[C@H](C(=O)N[C@@H](CCCCNC(=O)COCCOCCNC(=O)COCCOCCNC(=O)CC[C@H](NC(=O)CCCCCCCCCOc1ccc(C(=O)O)cc1)C(=O)O)C(=O)NCC(=O)NCC(=O)N1CCC[C@H]1C(=O)N[C@@H](CO)C(=O)N[C@@H](CO)C(=O)NCC(=O)N[C@@H](C)C(=O)N1CCC[C@H]1C(=O)N1CCC[C@H]1C(=O)N1CCC[C@H]1C(=O)N[C@@H](CO)C(N)=O)[C@@H](C)CC)[C@@H](C)CC` [Example 280] the EC50 (hGCGR; hGCGR EC50, nM (SEM, n), 0.1% bovine casein and 1.0% human serum albumin, 37° C., geometric mean) was greater than 9950 nM, the EC50 (hGCGR; hGCGR EC50, nM (SEM, n), cAMP, 37° C., 0.1% bovine casein (no human serum albumin), geometric mean) was greater than 9950 nM and the Emax (hGIPR; HEK293, read-out: hGIPR Emax, % ± SEM, 0.1% bovine casein and 1.0% human serum albumin, 37° C., percent of maximal response to GIP(1-42)NH2) was 88.5%. It also gave an Emax (hGIPR; HEK293, read-out: hGIPR Emax, % ± SEM, cAMP, 37° C., 0.1% bovine casein, percent of maximal response to GIP(1-42)NH2, arithmetic mean) of 105%, an EC50 (hGIPR; hGIPR EC50, nM (SEM, n), 0.1% bovine casein and 1.0% human serum albumin, 37° C.) of 4.84 nM and an EC50 (hGIPR; hGIPR EC50, nM (SEM, n), cAMP, 37° C., 0.1% bovine casein (no human serum albumin)) of 0.0229 nM. It also gave an Emax (hGLP-1R; HEK293, read-out: hGLP-1R Emax, % ± SEM, 0.1% bovine casein and 1.0% human serum albumin, 37° C., percent of maximal response to GLP-1(7-36)NH2) of 105% and an EC50 (hGLP-1R; hGLP-1R EC50, nM (SEM, n), cAMP, 37° C., 0.1% bovine casein (no human serum albumin), geometric mean) of 0.346 nM.

In the case of `CC[C@H](C)[C@H](NC(=O)[C@H](CC(C)C)NC(=O)[C@](C)(Cc1ccc(O)cc1)NC(=O)[C@@H](CCC(=O)O)NC(=O)[C@@H](NC(=O)[C@H](Cc1cccc2ccccc12)NC(=O)[C@H](CCC(=O)O)NC(=O)C(C)(C)NC(=O)[C@H](CCC(N)=O)NC(=O)[C@H](C)NC(=O)[C@H](CCCCNC(=O)COCCOCCNC(=O)COCCOCCNC(=O)CC[C@H](NC(=O)CCCCCCCCCCCCC(=O)O)C(=O)O)NC(=O)[C@H](CCCN)NC(=O)[C@H](CC(=O)O)NC(=O)[C@H](CC(C)C)NC(=O)[C@](C)(CC(C)C)NC(=O)[C@@H](NC(=O)[C@H](CO)NC(=O)[C@H](Cc1ccncc1)NC(=O)[C@H](CC(=O)O)NC(=O)[C@H](CO)NC(=O)[C@@H](NC(=O)[C@](C)(Cc1ccccc1F)NC(=O)[C@@H](NC(=O)CNC(=O)[C@H](CCC(=O)O)NC(=O)C(C)(C)NC(=O)[C@@H](N)Cc1ccc(O)cc1)[C@@H](C)O)[C@@H](C)O)[C@@H](C)CC)[C@@H](C)CC)C(=O)N[C@@H](CCC(=O)O)C(=O)NCC(=O)NCC(=O)N[C@@H](CCCCNC(=O)COCCOCCNC(=O)COCCOCCNC(=O)CC[C@H](NC(=O)CCCCCCCCCCCCC(=O)O)C(=O)O)C(=O)N[C@@H](CO)C(=O)N[C@@H](CO)C(=O)NCC(=O)N[C@@H](C)C(=O)N1CCC[C@H]1C(=O)N1CCC[C@H]1C(=O)N1CCC[C@H]1C(=O)N[C@@H](CO)C(N)=O` [Example 66], the EC50 (hGCGR; [1]) is reported as greater than 9950 nM, the EC50 (hGCGR; [2]) is reported as greater than 9950 nM and the Emax (hGIPR; [3]) is reported as 90.6 ± 3.37%. For the same compound, the Emax (hGIPR; [4]) was 93.5 ± 1.39%, the EC50 (hGIPR; [5]) was 0.0168 nM and the EC50 (hGLP-1R; 0.1% bovine casein and 1.0% human serum albumin, 37° C., geometric mean, read-out: hGLP-1R EC50, nM (SEM, n)) was 27 nM. For the same compound, the Emax (hGLP-1R; [6]) was 93 ± 2.36%.
